Measured values reported in ChEMBL document CHEMBL1909046, “DrugMatrix in vitro pharmacology data”.

How the values were obtained:
[1] = target: Cytochrome P450 2D6 (Homo sapiens, UniProt P10635); details: bti-tn-5b1-4; further: in other assays of this panel Not Active means under 50% inhibition at 10 µM
[2] = target: T1, C-C chemokine receptor type 4 (Homo sapiens, UniProt P51679); type: cell membranes, Chem-1, Membrane; details: chem-1; further: in other assays of this panel Not Active means under 50% inhibition at 10 µM
T1 sequence (P51679 whole entry): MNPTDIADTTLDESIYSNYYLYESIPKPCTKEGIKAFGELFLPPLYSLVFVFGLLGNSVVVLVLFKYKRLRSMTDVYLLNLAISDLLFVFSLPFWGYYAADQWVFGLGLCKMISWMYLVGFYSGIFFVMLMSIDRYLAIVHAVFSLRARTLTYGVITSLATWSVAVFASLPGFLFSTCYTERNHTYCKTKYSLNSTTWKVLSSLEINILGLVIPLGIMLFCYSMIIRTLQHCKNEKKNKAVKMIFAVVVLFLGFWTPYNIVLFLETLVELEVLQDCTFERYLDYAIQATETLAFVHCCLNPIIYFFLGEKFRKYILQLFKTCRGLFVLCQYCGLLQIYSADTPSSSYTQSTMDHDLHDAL

[3] = DRUGMATRIX: Atrial Natriuretic Factor (ANF) radioligand binding (ligand: [125I] ANF (rat)); type: cell membranes, Cavia porcellus, Dunkin-Hartley, Adrenal gland, Membrane; details: Not Active = under 50% inhibition at 10 µM
[4] = target: Estrogen receptor beta (Homo sapiens, UniProt Q92731); details: sf9; further: in other assays of this panel Not Active means under 50% inhibition at 10 µM
[5] = target: C-C chemokine receptor type 2 (Homo sapiens, UniProt P41597); type: cell membranes, CHO-K1, Membrane; details: cho-k1; further: in other assays of this panel Not Active means under 50% inhibition at 10 µM
[6] = DRUGMATRIX: Platelet-Derived Growth Factor (PDGF) radioligand binding (ligand: [125I] PDGF); type: cell-based; details: nih3t3; Not Active = under 50% inhibition at 10 µM
[7] = target: T2, Type-2 angiotensin II receptor (Homo sapiens, UniProt P50052); type: cell-based; details: cho-k1; further: in other assays of this panel Not Active means under 50% inhibition at 10 µM
T2 sequence (P50052 whole entry): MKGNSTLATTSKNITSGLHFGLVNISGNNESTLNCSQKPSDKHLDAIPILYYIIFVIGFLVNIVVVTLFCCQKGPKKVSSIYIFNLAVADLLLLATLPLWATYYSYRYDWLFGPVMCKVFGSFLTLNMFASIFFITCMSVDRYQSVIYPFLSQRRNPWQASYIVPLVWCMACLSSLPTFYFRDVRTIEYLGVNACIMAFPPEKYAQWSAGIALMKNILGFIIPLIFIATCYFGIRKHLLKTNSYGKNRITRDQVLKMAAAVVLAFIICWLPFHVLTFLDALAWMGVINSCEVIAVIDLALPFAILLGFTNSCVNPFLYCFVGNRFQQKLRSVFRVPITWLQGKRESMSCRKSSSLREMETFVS

[8] = target: T3, Alpha-1B adrenergic receptor (Rattus norvegicus, UniProt P15823); test: DRUGMATRIX: Alpha-1B adrenergic receptor radioligand binding (ligand: prazosin); type: cell membranes, Wistar, Liver, Membrane; details: Not Active = under 50% inhibition at 10 µM
T3 sequence (P15823 whole entry): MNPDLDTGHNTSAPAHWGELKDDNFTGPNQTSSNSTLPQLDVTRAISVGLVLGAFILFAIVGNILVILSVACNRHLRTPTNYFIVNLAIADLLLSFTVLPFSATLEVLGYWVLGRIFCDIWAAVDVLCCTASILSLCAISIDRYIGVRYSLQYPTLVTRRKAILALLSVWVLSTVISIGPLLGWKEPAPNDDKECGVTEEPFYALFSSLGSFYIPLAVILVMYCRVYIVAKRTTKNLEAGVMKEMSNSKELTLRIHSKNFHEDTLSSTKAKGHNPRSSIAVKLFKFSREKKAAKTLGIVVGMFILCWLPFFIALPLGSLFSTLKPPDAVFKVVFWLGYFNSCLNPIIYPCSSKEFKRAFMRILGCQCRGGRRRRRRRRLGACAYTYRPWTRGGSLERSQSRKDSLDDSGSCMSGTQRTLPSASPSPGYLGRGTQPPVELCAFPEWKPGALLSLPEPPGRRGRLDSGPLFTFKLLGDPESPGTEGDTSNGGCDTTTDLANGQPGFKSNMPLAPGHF

Chain of Cytochrome P450 2D6 (P10635 whole entry): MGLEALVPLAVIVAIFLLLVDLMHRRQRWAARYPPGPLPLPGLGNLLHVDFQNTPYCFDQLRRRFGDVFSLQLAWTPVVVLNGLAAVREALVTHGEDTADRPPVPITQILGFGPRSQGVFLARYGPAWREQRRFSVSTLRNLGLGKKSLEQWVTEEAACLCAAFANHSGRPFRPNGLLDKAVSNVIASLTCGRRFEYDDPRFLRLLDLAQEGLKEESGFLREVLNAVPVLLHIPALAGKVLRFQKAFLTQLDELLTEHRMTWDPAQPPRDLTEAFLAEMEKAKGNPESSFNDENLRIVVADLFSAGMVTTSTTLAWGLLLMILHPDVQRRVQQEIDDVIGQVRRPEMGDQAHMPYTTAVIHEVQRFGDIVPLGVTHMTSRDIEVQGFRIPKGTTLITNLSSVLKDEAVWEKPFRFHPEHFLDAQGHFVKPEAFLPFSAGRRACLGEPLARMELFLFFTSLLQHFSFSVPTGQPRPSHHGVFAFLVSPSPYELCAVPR
Chain of Estrogen receptor beta (Q92731 whole entry): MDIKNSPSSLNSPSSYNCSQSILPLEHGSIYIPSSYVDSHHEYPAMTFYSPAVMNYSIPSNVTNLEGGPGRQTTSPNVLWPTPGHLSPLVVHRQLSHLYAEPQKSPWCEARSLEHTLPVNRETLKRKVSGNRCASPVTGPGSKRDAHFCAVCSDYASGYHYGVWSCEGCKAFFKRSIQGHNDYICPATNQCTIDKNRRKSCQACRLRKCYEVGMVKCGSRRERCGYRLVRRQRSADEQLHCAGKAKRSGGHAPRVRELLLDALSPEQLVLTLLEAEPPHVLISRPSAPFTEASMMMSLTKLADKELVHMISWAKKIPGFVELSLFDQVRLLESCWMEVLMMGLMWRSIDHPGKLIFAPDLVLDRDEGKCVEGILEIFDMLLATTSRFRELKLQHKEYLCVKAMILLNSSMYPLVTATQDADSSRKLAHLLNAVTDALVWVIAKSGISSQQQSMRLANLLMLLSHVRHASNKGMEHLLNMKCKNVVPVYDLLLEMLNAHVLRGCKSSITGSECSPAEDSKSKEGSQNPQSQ
Chain of C-C chemokine receptor type 2 (P41597 whole entry): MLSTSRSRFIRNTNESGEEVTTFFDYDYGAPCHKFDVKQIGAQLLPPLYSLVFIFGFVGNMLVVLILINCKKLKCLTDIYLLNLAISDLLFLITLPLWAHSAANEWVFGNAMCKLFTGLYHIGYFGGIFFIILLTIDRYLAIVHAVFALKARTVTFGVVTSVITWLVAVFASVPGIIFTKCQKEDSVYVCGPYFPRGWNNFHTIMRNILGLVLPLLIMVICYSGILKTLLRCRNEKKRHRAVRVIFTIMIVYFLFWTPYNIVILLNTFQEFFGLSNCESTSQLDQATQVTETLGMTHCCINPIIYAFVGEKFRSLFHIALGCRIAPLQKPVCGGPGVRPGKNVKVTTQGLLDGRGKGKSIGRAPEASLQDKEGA

NC(=O)CN1CCCC1=O
Not Active: IC50 [1] | Ki [1] | IC50 [2] | IC50 [3] | Ki [3] | IC50 [4] | IC50 [5] | IC50 [6] | Ki [6] | IC50 [7] | IC50 [8]

CCN1C[C@]2(COC)[C@H](O)C[C@H](OC)[C@@]34[C@@H]5C[C@@]6(O)[C@H](OC(=O)c7ccccc7)[C@@H]5[C@@](OC(C)=O)([C@@H]([C@H](OC)[C@H]23)[C@@H]14)[C@@H](O)[C@@H]6OC [ACONITINE]
Not Active: IC50 [1] | Ki [1] | IC50 [2] | IC50 [3] | Ki [3] | IC50 [4] | IC50 [5] | IC50 [6] | Ki [6] | IC50 [7] | IC50 [8]

O=C(NCCN1CCOCC1)c1ccc(Cl)cc1 [MOCLOBEMIDE]
Not Active: IC50 [1] | Ki [1] | IC50 [2] | IC50 [3] | Ki [3] | IC50 [4] | IC50 [5] | IC50 [6] | Ki [6] | IC50 [7] | IC50 [8]

O=C(O)COC(=O)Cc1ccccc1Nc1c(Cl)cccc1Cl [ACECLOFENAC]
Not Active: IC50 [1] | Ki [1] | IC50 [2] | IC50 [3] | Ki [3] | IC50 [4] | IC50 [5] | IC50 [6] | Ki [6] | IC50 [7] | IC50 [8]

COc1cc(/C=C/C(=O)O)ccc1O [FERULATE]
Not Active: IC50 [1] | Ki [1] | IC50 [2] | IC50 [3] | Ki [3] | IC50 [4] | IC50 [5] | IC50 [6] | Ki [6] | IC50 [7] | IC50 [8]

O=c1[nH]c2ccccc2c2ccccc12
Not Active: IC50 [1] | Ki [1] | IC50 [2] | IC50 [3] | Ki [3] | IC50 [4] | IC50 [5] | IC50 [6] | Ki [6] | IC50 [7] | IC50 [8]

COc1ccc(C[C@H](N)C(=O)N[C@H]2[C@@H](O)[C@H](n3cnc4c(N(C)C)ncnc43)O[C@@H]2CO)cc1 [PUROMYCIN]
Not Active: IC50 [1] | Ki [1] | IC50 [2] | IC50 [3] | Ki [3] | IC50 [4] | IC50 [5] | IC50 [6] | Ki [6] | IC50 [7] | IC50 [8]

NC(=O)NC(=O)Cc1ccccc1 [PHENACEMIDE]
Not Active: IC50 [1] | Ki [1] | IC50 [2] | IC50 [3] | Ki [3] | IC50 [4] | IC50 [5] | IC50 [6] | Ki [6] | IC50 [7] | IC50 [8]

c1ccc2c(c1)Nc1ccccc1S2 [PHENOTHIAZINE]
Not Active: IC50 [1] | Ki [1] | IC50 [2] | IC50 [3] | Ki [3] | IC50 [4] | IC50 [5] | IC50 [6] | Ki [6] | IC50 [7] | IC50 [8]

POVIDONE
Not Active: IC50 [1] | Ki [1] | IC50 [2] | Ki [2] | IC50 [3] | Ki [3] | IC50 [4] | Ki [4] | IC50 [5] | Ki [5] | IC50 [6] | Ki [6] | IC50 [7] | Ki [7] | IC50 [8] | Ki [8]

CCO [ALCOHOL]
Not Active: IC50 [1] | Ki [1] | IC50 [2] | IC50 [3] | Ki [3] | IC50 [4] | IC50 [5] | IC50 [6] | Ki [6] | IC50 [7] | IC50 [8]

Clc1cc(Cl)c(OCC#CI)cc1Cl [HALOPROGIN]
Not Active: IC50 [1] | Ki [1] | IC50 [2] | IC50 [3] | Ki [3] | IC50 [4] | IC50 [5] | IC50 [6] | Ki [6] | IC50 [7] | IC50 [8]

CHROMIC CHLORIDE
Not Active: IC50 [1] | Ki [1] | IC50 [2] | Ki [2] | IC50 [3] | Ki [3] | IC50 [4] | Ki [4] | IC50 [5] | Ki [5] | IC50 [6] | Ki [6] | IC50 [7] | Ki [7] | IC50 [8] | Ki [8]

COc1cc([C@@H]2c3cc4c(cc3[C@H](O)[C@H]3COC(=O)[C@H]23)OCO4)cc(OC)c1OC [PODOFILOX]
Not Active: IC50 [1] | Ki [1] | IC50 [2] | IC50 [3] | Ki [3] | IC50 [4] | IC50 [5] | IC50 [6] | Ki [6] | IC50 [7] | IC50 [8]
